Several values for one entry are separate records, joined by “and”; a condition that tells them apart may be missing. Identical values can stand only once.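 Protocol summary: plate cells (96-well), add compound at 5 concentrations, incubate 48 h, interpolate endpoints linearly. GI50 is the concentration that inhibits growth by half. At the TGI there is no net growth.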
Assays:
Assay in all cases: inhibition of tumour cell growth, NCI panel, 48 h
SNB-75 CNS = tested on: SNB-75 CNS
SK-MEL-28 melanoma = tested on: SK-MEL-28 melanoma
SF-295 CNS = tested on: SF-295 CNS
MCF7 breast = tested on: MCF7 breast
HCT-116 colon = tested on: HCT-116 colon
CCRF-CEM leukemia = tested on: CCRF-CEM leukemia
SF-539 CNS = tested on: SF-539 CNS
DU-145 prostate = tested on: DU-145 prostate
UACC-62 melanoma = tested on: UACC-62 melanoma
HT29 colon = tested on: HT29 colon

Work on COc1cc2nc(N3CCCN(C)CC3)nc(NC3CCN(Cc4ccccc4)CC3)c2cc1OC yielded a GI50 (SNB-75 CNS) of 1.4 µM, a TGI (SNB-75 CNS) of 4.55 µM and a GI50 (SK-MEL-28 melanoma) of 1.88 µM. It also gave a TGI (SK-MEL-28 melanoma) of 3.77 µM, a GI50 (SF-295 CNS) of 1.81 µM and a TGI (SF-295 CNS) of 3.46 µM. For the same compound, the GI50 (MCF7 breast) was 2.08 µM, the TGI (MCF7 breast) was 7.65 µM and the GI50 (HCT-116 colon) was 2.24 µM. For the same compound, the TGI (HCT-116 colon) was 6.19 µM, the GI50 (CCRF-CEM leukemia) was 2.37 µM and the TGI (CCRF-CEM leukemia) was over 24.6 µM. It also gave a GI50 (SF-539 CNS) of 1.68 µM, a TGI (SF-539 CNS) of 3.33 µM and a GI50 (DU-145 prostate) of 2.86 µM. For the same compound, the TGI (DU-145 prostate) was 9.38 µM, the GI50 (UACC-62 melanoma) was 1.89 µM and the TGI (UACC-62 melanoma) was 3.56 µM. The GI50 (HT29 colon) was 1.33 µM and the TGI (HT29 colon) was 5.26 µM.
CCOC(=O)c1[nH]c2cc(Cl)ccc2c1[C@@H](C(=O)NC(C)(C)C)N(CC)C(=O)CCCCC#Cc1cccc2c1CN(C1CCC(=O)NC1=O)C2=O (stereo not given in full) was tested, and the GI50 (SNB-75 CNS) was under 0.01 µM, the TGI (SNB-75 CNS) was 4.81 µM and the GI50 (SK-MEL-28 melanoma) was 2.29 µM. It also gave a TGI (SK-MEL-28 melanoma) of 25.5 µM, a GI50 (SF-295 CNS) of 1.14 µM and a TGI (SF-295 CNS) of 3.88 µM. The GI50 (MCF7 breast) was 0.117 µM, the TGI (MCF7 breast) was over 100 µM and the GI50 (HCT-116 colon) was 2.55 µM. The TGI (HCT-116 colon) was 18.5 µM, the GI50 (CCRF-CEM leukemia) was under 0.01 µM and the TGI (CCRF-CEM leukemia) was over 100 µM. The GI50 (SF-539 CNS) was 1.74 µM, the TGI (SF-539 CNS) was 11.7 µM and the GI50 (DU-145 prostate) was 3.06 µM. For the same compound, the TGI (DU-145 prostate) was 46.8 µM, the GI50 (UACC-62 melanoma) was 1.56 µM and the TGI (UACC-62 melanoma) was 5.51 µM. It also gave a GI50 (HT29 colon) of 2.13 µM and a TGI (HT29 colon) of over 100 µM.
Work on COc1cc(CCC[P+](c2ccccc2)(c2ccccc2)c2ccccc2)c(OC)c2c1OCO2 yielded a GI50 (SNB-75 CNS) of 1.2 µM, a TGI (SNB-75 CNS) of 4.59 µM and a GI50 (SK-MEL-28 melanoma) of 0.875 µM. The TGI (SK-MEL-28 melanoma) was 14 µM, the GI50 (SF-295 CNS) was 2.37 µM and the TGI (SF-295 CNS) was 7.39 µM. The GI50 (MCF7 breast) was 1.82 µM, the TGI (MCF7 breast) was 12.9 µM and the GI50 (HCT-116 colon) was 0.989 µM. For the same compound, the TGI (HCT-116 colon) was 16.2 µM, the GI50 (CCRF-CEM leukemia) was 1.61 µM and the TGI (CCRF-CEM leukemia) was over 100 µM. The GI50 (SF-539 CNS) was 2.31 µM, the TGI (SF-539 CNS) was 12.6 µM and the GI50 (DU-145 prostate) was 3.21 µM. The TGI (DU-145 prostate) was 74.5 µM, the GI50 (UACC-62 melanoma) was 0.629 µM and the TGI (UACC-62 melanoma) was 4.27 µM. It also gave a GI50 (HT29 colon) of 0.812 µM and a TGI (HT29 colon) of 41 µM.
Work on COc1ccc(-c2ncnc3c2ncn3CC#CCCl)cc1 yielded a GI50 (SNB-75 CNS) of 1.64 µM, a TGI (SNB-75 CNS) of 4.84 µM and a GI50 (SK-MEL-28 melanoma) of 9.87 µM. The TGI (SK-MEL-28 melanoma) was 21.8 µM, the GI50 (SF-295 CNS) was 2.35 µM and the TGI (SF-295 CNS) was 7.15 µM. For the same compound, the GI50 (MCF7 breast) was 2.48 µM, the TGI (MCF7 breast) was 12.2 µM and the GI50 (HCT-116 colon) was 3.5 µM. It also gave a TGI (HCT-116 colon) of 14.7 µM, a GI50 (CCRF-CEM leukemia) of 3.84 µM and a TGI (CCRF-CEM leukemia) of 42.7 µM. For the same compound, the GI50 (SF-539 CNS) was 6.48 µM, the TGI (SF-539 CNS) was 20.9 µM and the GI50 (DU-145 prostate) was 4.74 µM. The TGI (DU-145 prostate) was 18.4 µM, the GI50 (UACC-62 melanoma) was 3.32 µM and the TGI (UACC-62 melanoma) was 15.2 µM. For the same compound, the GI50 (HT29 colon) was 7.12 µM and the TGI (HT29 colon) was 24.6 µM.
O=C(O)Cc1cccc2c(=O)cc(-c3ccccc3)oc12 was tested, and the GI50 (SNB-75 CNS) was 345 µM, the TGI (SNB-75 CNS) was 249 µM and > 676 µM and the GI50 (SK-MEL-28 melanoma) was 533 µM. The TGI (SK-MEL-28 melanoma) was over 1000 µM, the GI50 (SF-295 CNS) was 400 µM and the TGI (SF-295 CNS) was 250 µM and > 1000 µM. The GI50 (MCF7 breast) was 581 µM, the TGI (MCF7 breast) was 250 µM and > 1000 µM and the GI50 (HCT-116 colon) was 294 µM. The TGI (HCT-116 colon) was 212 µM and > 868 µM, the GI50 (CCRF-CEM leukemia) was > 49.6 µM and 29.8 µM and the TGI (CCRF-CEM leukemia) was 237 µM and 747 µM. For the same compound, the GI50 (SF-539 CNS) was 398 µM, the TGI (SF-539 CNS) was > 250 µM and 838 µM and the GI50 (DU-145 prostate) was over 250 µM. It also gave a TGI (DU-145 prostate) of over 1000 µM, a GI50 (UACC-62 melanoma) of 475 µM and a TGI (UACC-62 melanoma) of over 1000 µM. For the same compound, the GI50 (HT29 colon) was 489 µM and the TGI (HT29 colon) was over 1000 µM.
